Assay [1] has as its system B. anthracis GFP sterne vegetative cells. Nature of the assay: microbe, parasite or virus in culture. Conditions: for MIC: Bacillus anthracis, read-out: MIC B. anthracis vegetative cells. It counts as cell-based.
Assay [2] relates to B. anthracis GFP sterne spores. Nature of the assay: microbe, parasite or virus in culture. It is filed as cell-based. Conditions: for MIC: Bacillus anthracis, read-out: MIC B. anthracis spores.

In brackets after ≈: the same amount, converted by molar mass.

Regarding `N=C(N)c1ccc(-c2cc3cc(C(=N)N)ccc3s2)cc1` [NSC 240891, 2-(4-carbamimidoylphenyl)benzothiophene-5-carboximidamide], the MIC in assay [1] and in assay [2] was above 14.7 µg/mL throughout.

As to `NC(N)=Nc1ccc(-c2cc3cc(N=C(N)N)ccc3s2)cc1` [NSC 341910, 2-[2-[4-(diaminomethylideneamino)phenyl]benzothiophen-5-yl]guanidine], the MIC was above 15.9 µg/mL in assay [1] and 15.9 µg/mL (≈ 48.9 µM) in assay [2].

In the case of `C(=Cc1nc2ccccc2[nH]1)c1nc2ccccc2[nH]1` [NSC 103699, 2-[2-(1H-benzoimidazol-2-yl)ethenyl]-1H-benzoimidazole], the MIC in assay [1] and in assay [2] was above 10.4 µg/mL each time.

Take `N=C(N)c1ccc2oc(/C=C/c3cc4ccc(C(=N)N)cc4o3)cc2c1` [NSC 294202, 2-[(E)-2-(5-carbamimidoylbenzofuran-2-yl)ethenyl]benzofuran-6-carboximidamide]: the MIC in assay [1] and in assay [2] was above 16.7 µg/mL throughout.

Turning to `N=C(N)c1ccc(-c2[nH]c3cc(C(=N)N)ccc3c2-c2ccccc2)cc1` [NSC 240897, 2-(4-carbamimidoylphenyl)-3-phenyl-1H-indole-6-carboximidamide], the MIC in assay [1] was determined as 17 µg/mL (≈ 48.2 µM); in assay [2] it was 8.52 µg/mL (≈ 24.1 µM).

Turning to `O=C(Nc1ccc(C2=NCCN2)cc1)c1cc2ccc(C3=NCCN3)cc2o1` [NSC 294208, 6-(4,5-dihydro-1H-imidazol-2-yl)-N-[4-(4,5-dihydro-1H-imidazol-2-yl)phenyl]benzofuran-2-carboxamide], the MIC in assay [1] and in assay [2] was above 17.8 µg/mL in each case.

Take `N=C(N)c1ccc(-n2cc3cc(C(=N)N)ccc3n2)cc1` [NSC 240895, 2-(4-carbamimidoylphenyl)indazole-5-carboximidamide]: the MIC in assay [1] and in assay [2] was above 14 µg/mL each time.

Take `N=C(N)c1ccc(-c2nc3ccc(C(=N)N)cc3[nH]2)cc1` [NSC 240894, 2-(4-carbamimidoylphenyl)-3H-benzoimidazole-5-carboximidamide]: the MIC in assay [1] and in assay [2] was above 14 µg/mL in each case.

For the compound `C(=C\c1cc2cc(C3=NCCN3)ccc2o1)/c1cc2cc(C3=NCCN3)ccc2o1` [NSC 278999, 2-[2-[(E)-2-[5-(4,5-dihydro-1H-imidazol-2-yl)benzofuran-2-yl]ethenyl]benzofuran-5-yl]-4,5-dihydro-1H-imidazole], the MIC in assay [1] and in assay [2] was above 18.8 µg/mL in each case.

`N=C(N)c1ccc(-c2[nH]c3cc(C(=N)N)ccc3c2N)cc1` [NSC 300509, 3-amino-2-(4-carbamimidoylphenyl)-1H-indole-6-carboximidamide]: the MIC in assay [1] and in assay [2] was above 14.6 µg/mL throughout.

On to `c1cc(-c2cc3cc(C4=NCCN4)ccc3s2)ccc1C1=NCCN1` [NSC 308569, 2-[2-[4-(4,5-dihydro-1H-imidazol-2-yl)phenyl]benzothiophen-5-yl]-4,5-dihydro-1H-imidazole], for which the MIC in assay [1] and in assay [2] was above 16.8 µg/mL each time.

For the compound `N=C(N)c1ccc(NC(=O)c2cc3ccc(C(=N)N)cc3o2)cc1` [NSC 294207, 6-carbamimidoyl-N-(4-carbamimidoylphenyl)benzofuran-2-carboxamide], the MIC in assay [1] and in assay [2] was above 15.8 µg/mL in each case.

`N=C(N)c1ccc(-n2nc3ccc(C(=N)N)cc3n2)cc1` [NSC 240896, 2-(4-carbamimidoylphenyl)benzotriazole-5-carboximidamide]: the MIC in assay [1] and in assay [2] was above 14.1 µg/mL each time.

With `Cc1cc2nc(C=Cc3nc4cc(C)c(C)cc4[nH]3)[nH]c2cc1C` [NSC 92833, 2-[2-(5,6-dimethyl-1H-benzoimidazol-2-yl)ethenyl]-5,6-dimethyl-1H-benzoimidazole], the MIC in assay [1] and in assay [2] was above 12.6 µg/mL throughout.

On to `c1cc(-c2cc3ccc(C4=NCCN4)cc3s2)ccc1C1=NCCN1` [NSC 278996, 2-[2-[4-(4,5-dihydro-1H-imidazol-2-yl)phenyl]benzothiophen-6-yl]-4,5-dihydro-1H-imidazole], for which the MIC in assay [1] and in assay [2] was above 16.8 µg/mL throughout.

Regarding `C(=C\c1cc2ccc(C3=NCCN3)cc2[nH]1)/c1ccc(Oc2ccc(C3=NCCN3)cc2)cc1` [NSC 330690, 6-(4,5-dihydro-1H-imidazol-2-yl)-2-[(E)-2-[4-[4-(4,5-dihydro-1H-imidazol-2-yl)phenoxy]phenyl]ethenyl]-1H-indole], the MIC in assay [1] and in assay [2] was 2.6 µg/mL (≈ 5.81 µM) throughout.

In the case of `Nc1ccc(C2=Cc3ccc(N)cc3S2(=O)=O)cc1` [NSC 266482, 2-(4-aminophenyl)-1,1-dioxo-benzothiophen-6-amine], the MIC in assay [1] and in assay [2] was above 10.9 µg/mL each time.

For “Glycine, N-acetyl-, compound with 2,2′-(1,{2-ethenediyl)bis[5-benzofurancarboximidamide]} (2:1) [NSC 341082]”, the “MIC B. anthracis vegetative cells” value in assay [1] was above 23.16 µg/mL. Further, the “MIC B. anthracis spores” value in assay [2] is above 23.16 µg/mL.

As to `N=C(N)c1ccc2c(c1)=NC(=C(N)N)C=2` [NSC 330689, 2-(diaminomethylidene)indole-6-carboximidamide], the MIC in assay [1] and in assay [2] was above 11 µg/mL in each case.

For `N=C(N)c1ccc(-c2ccc(-c3ccc(C(=N)N)cc3)s2)cc1` [NSC 300510, 4-[5-(4-carbamimidoylphenyl)thiophen-2-yl]benzenecarboximidamide], the MIC in assay [1] is above 15.7 µg/mL; in assay [2], 15.7 µg/mL (≈ 49.1 µM).

As for `O=C(Nc1ccc(C2=NCCN2)cc1)c1cc2cc(C3=NCCN3)ccc2o1` [NSC 290111, 5-(4,5-dihydro-1H-imidazol-2-yl)-N-[4-(4,5-dihydro-1H-imidazol-2-yl)phenyl]benzofuran-2-carboxamide], the figures for the MIC in assay [1] and in assay [2] were above 17.8 µg/mL and 17.8 µg/mL (≈ 47.8 µM), respectively.

In the case of `C(=C\c1cc2cc(C3=NCCN3)ccc2s1)/c1ccc(C2=NCCN2)cc1` [NSC 317883, 2-[2-[(E)-2-[4-(4,5-dihydro-1H-imidazol-2-yl)phenyl]ethenyl]benzothiophen-5-yl]-4,5-dihydro-1H-imidazole], the MIC in assay [1] and in assay [2] was 17.8 µg/mL (≈ 47.8 µM) throughout.

`OCCn1c(C=Cc2nc3ccccc3[nH]2)nc2ccccc21` [NSC 103701, 2-[2-[2-(1H-benzoimidazol-2-yl)ethenyl]benzoimidazol-1-yl]ethanol]: the MIC in assay [1] and in assay [2] was above 12.2 µg/mL in each case.

For the compound `c1cc(-c2nc3ccc(-c4nc5ccc(C6=NCCN6)cc5[nH]4)cc3[nH]2)ccc1C1=NCCN1` [NSC 369721, 5-(4,5-dihydro-1H-imidazol-2-yl)-2-[2-[4-(4,5-dihydro-1H-imidazol-2-yl)phenyl]-3H-benzoimidazol-5-yl]-3H-benzoimidazole], the MIC is 22.3 µg/mL (≈ 49.9 µM) in assay [1] and 1.39 µg/mL (≈ 3.11 µM) in assay [2].

As for `N=C(N)c1ccc2cc(/C=C/c3cc4ccc(C(=N)N)cc4o3)oc2c1` [NSC 294199, 2-[(E)-2-(6-carbamimidoylbenzofuran-2-yl)ethenyl]benzofuran-6-carboximidamide], the MIC in assay [1] turned out to be 16.7 µg/mL (≈ 48.4 µM); in assay [2], 8.34 µg/mL (≈ 24.2 µM).

With `c1cc2cc(-c3cc4ccc(C5=NCCN5)cc4[nH]3)[nH]c2cc1C1=NCCN1` [NSC 330688, 6-(4,5-dihydro-1H-imidazol-2-yl)-2-[6-(4,5-dihydro-1H-imidazol-2-yl)-1H-indol-2-yl]-1H-indole], the MIC is 1.1 µg/mL (≈ 2.99 µM) in assay [1] and 0.551 µg/mL (≈ 1.5 µM) in assay [2].

For the compound `c1cc(-c2[nH]c3cc(C4=NCCN4)ccc3c2-c2cc3ccc(C4=NCCN4)cc3[nH]2)ccc1C1=NCCN1` [NSC 352341, 6-(4,5-dihydro-1H-imidazol-2-yl)-3-[6-(4,5-dihydro-1H-imidazol-2-yl)-1H-indol-2-yl]-2-[4-(4,5-dihydro-1H-imidazol-2-yl)phenyl]-1H-indole], in assay [1], the “MIC B. anthracis vegetative cells” value was 13.64 µg/mL (≈ 26.6 µM). Moreover, the “MIC B. anthracis spores” value in assay [2] was 6.82 µg/mL (≈ 13.3 µM).

For `N=C(N)c1ccc(-c2cc(-c3ccc(C(=N)N)cc3)on2)cc1` [NSC 240900, 4-[3-(4-carbamimidoylphenyl)oxazol-5-yl]benzenecarboximidamide], the MIC in assay [1] and in assay [2] was above 15.1 µg/mL each time.

For the compound `CC(O)C(=O)O.N=C(N)c1ccc(-c2cc3ccc(C(=N)N)cc3s2)cc1` [NSC 240890, 2-(4-carbamimidoylphenyl)benzothiophene-6-carboximidamide; 2-hydroxypropanoic acid], the MIC in assay [1] and in assay [2] was above 19 µg/mL in each case.

With `N=C(N)c1ccc(/C=C/c2cc3cc(C(=N)N)ccc3o2)cc1` [NSC 300512, 2-[(E)-2-(4-carbamimidoylphenyl)ethenyl]benzofuran-5-carboximidamide], the MIC in assay [1] and in assay [2] was above 15.1 µg/mL in each case.

Turning to `N=C(N)c1ccc2oc(CCc3cc4cc(C(=N)N)ccc4o3)cc2c1` [NSC 266477, 2-[2-(5-carbamimidoylbenzofuran-2-yl)ethyl]benzofuran-5-carboximidamide], the MIC in assay [1] and in assay [2] was above 16.8 µg/mL throughout.

On to `N=C(N)c1ccc2oc(/C=C/c3cc4cc(C(=N)N)ccc4s3)cc2c1` [NSC 266472, 2-[(E)-2-(5-carbamimidoylbenzothiophen-2-yl)ethenyl]benzofuran-5-carboximidamide], for which the MIC is 17.3 µg/mL (≈ 48.1 µM) in assay [1] and 8.66 µg/mL (≈ 24 µM) in assay [2].

As for `C(=C\c1cc2ccc(C3=NCCN3)cc2o1)/c1cc2ccc(C3=NCCN3)cc2o1` [NSC 294494, 2-[2-[(E)-2-[6-(4,5-dihydro-1H-imidazol-2-yl)benzofuran-2-yl]ethenyl]benzofuran-6-yl]-4,5-dihydro-1H-imidazole], the MIC in assay [1] and in assay [2] was 18.8 µg/mL (≈ 47.3 µM) each time.

With `N=C(N)c1ccc2nc(/C=C/c3nc4ccc(C(=N)N)cc4[nH]3)[nH]c2c1` [NSC 266475, 2-[(E)-2-(5-carbamimidoyl-3H-benzoimidazol-2-yl)ethenyl]-3H-benzoimidazole-5-carboximidamide], the MIC in assay [1] and in assay [2] was above 16.7 µg/mL in each case.

In the case of `C(/C=C/c1cc2cc(C3=NCCN3)ccc2o1)=C\c1ccc(C2=NCCN2)cc1` [NSC 308573, 2-[2-[(1E,3E)-4-[4-(4,5-dihydro-1H-imidazol-2-yl)phenyl]buta-1,3-dienyl]benzofuran-5-yl]-4,5-dihydro-1H-imidazole], the MIC in assay [1] and in assay [2] was 18.2 µg/mL (≈ 47.6 µM) each time.

The record behind these values is patent US8691859B2 (priority 2005, dated 2014).
